In patent publication US20080287653A1, “METHOD FOR PRODUCING INHIBITORS AND INHIBITORS FORMED THEREFROM” (THE UNIVERSITY OF AKRON, priority 2007, published 2008):
Marks after values point to notes of the source that are not given here. Non-standard residues stand in square brackets, D forms with d. Residues, ends and D or L forms follow the SMILES beside them. Lys(Thioacetyl) = CC(=S)NCCCC[C@H](N)C(=O)O

Assays:
SIRT1 = target: T1, SIRT1 (Homo sapiens, UniProt Q96EB6); assay: HPLC-based SIRT1 inhibition assay with purified GST-SIRT1; type: biochemical
T1 construct: made in house
T1 sequence (Q96EB6 1-747): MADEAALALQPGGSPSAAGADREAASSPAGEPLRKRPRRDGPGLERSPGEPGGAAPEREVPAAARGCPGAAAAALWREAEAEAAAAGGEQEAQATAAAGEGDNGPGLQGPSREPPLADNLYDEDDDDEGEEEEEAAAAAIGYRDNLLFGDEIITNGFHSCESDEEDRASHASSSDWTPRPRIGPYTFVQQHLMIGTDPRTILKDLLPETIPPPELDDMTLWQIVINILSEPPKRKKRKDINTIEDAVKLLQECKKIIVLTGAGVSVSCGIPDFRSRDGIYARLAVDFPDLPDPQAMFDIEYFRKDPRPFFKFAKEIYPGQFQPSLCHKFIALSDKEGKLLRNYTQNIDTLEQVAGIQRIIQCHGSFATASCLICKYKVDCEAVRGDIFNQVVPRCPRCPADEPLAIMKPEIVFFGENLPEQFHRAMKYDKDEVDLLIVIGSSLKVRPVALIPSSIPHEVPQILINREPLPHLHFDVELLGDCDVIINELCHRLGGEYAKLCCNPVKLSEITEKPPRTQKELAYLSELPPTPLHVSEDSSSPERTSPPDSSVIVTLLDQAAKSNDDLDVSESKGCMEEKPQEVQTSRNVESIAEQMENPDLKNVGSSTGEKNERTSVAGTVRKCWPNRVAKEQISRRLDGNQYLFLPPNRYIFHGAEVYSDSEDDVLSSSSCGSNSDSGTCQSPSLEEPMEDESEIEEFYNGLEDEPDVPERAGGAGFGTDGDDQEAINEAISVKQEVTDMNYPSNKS
Protocol: Inhibition assays with purified SIRT1, SIRT2, and SIRT3. GST-SIRT1 that could be produced in a laboratory was used for the SIRT1 inhibition assay. SIRT2 and SIRT3 are obtainable from commercial sources known to those skilled in the art. Consistent HPLC-based assay procedures were used for the inhibition assays with SIRT1, SIRT2, and SIRT3. […] An enzymatic reaction was initiated by the addition of an enzyme at 37° C. and was allowed to be incubated at 37° C.: 10 minutes as follows: for SIRT1 assay, or 60 minutes for SIRT2 and SIRT3 assays. Incubation was quenched at the indicated time with the following stop solution: 100 mM HCl and 0.16 M acetic acid. […] All peptide stock solutions were prepared in ddH2O. IC50 values were estimated from Dixon plots (1/v0 vs. [inhibitor]) as an indication of the inhibition potency.

SIRT2 = target: T2, SIRT2 (Homo sapiens, UniProt Q8IXJ6); assay: HPLC-based SIRT2 inhibition assay with purified SIRT2; type: biochemical; conditions: SIRT2 vs SIRT1
T2 construct: purchased
T2 sequence (Q8IXJ6 1-389): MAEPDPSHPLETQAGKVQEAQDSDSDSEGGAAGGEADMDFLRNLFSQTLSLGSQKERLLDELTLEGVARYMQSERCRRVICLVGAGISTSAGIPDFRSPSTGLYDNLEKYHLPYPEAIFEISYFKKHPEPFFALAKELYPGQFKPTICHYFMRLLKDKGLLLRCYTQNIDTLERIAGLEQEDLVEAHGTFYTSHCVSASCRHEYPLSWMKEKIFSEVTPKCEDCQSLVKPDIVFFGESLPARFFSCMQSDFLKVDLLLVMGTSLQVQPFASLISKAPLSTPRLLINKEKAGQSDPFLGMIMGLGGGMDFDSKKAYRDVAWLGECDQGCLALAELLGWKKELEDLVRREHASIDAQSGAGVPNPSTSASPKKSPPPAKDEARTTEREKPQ
Protocol: (§1) Inhibition assays with purified SIRT1, SIRT2, and SIRT3. GST-SIRT1 that could be produced in a laboratory was used for the SIRT1 inhibition assay. SIRT2 and SIRT3 are obtainable from commercial sources known to those skilled in the art. Consistent HPLC-based assay procedures were used for the inhibition assays with SIRT1, SIRT2, and SIRT3. In brief, an inhibition assay solution had the following components: 25 mM (or 50 mM for SIRT2 assay) Tris.HCl (pH 8.0) 137 mM NaCl, 2.7 mM KCl, 1 mM MgCl2, 1 mg/mL BSA (SIGMA Cat. #A3803 with reduced fatty acid content, for SIRT2 assay only), 0.5 mM β-NAD^+, 0.3 mM peptide substrate (peptide 1b for SIRT1 and SIRT2 assays; peptide 3b for SIRT3 assay), an inhibitor (peptide 1a, 2, or 3a) with varied concentrations including 0, and an enzyme (GST-SIRT1, 0.15 μM; SIRT2, 0.3 μM; or SIRT3, 2.0 μM). […] An enzymatic reaction was initiated by the addition of an enzyme at 37° C. and was allowed to be incubated at 37° C.: 10 minutes as follows: for SIRT1 assay, or 60 minutes for SIRT2 and SIRT3 assays. […] The enzymatic deacetylation products (peptide 1c in SIRT1 and SIRT2 assays; peptide 3c in SIRT3 assay) were confirmed by their comigration with the chemically synthesized authentic samples and by MALDI-TOF mass spectrometric analysis, and were quantified by HPLC peak integration and comparison with those of synthetic authentic samples. […]

SIRT3 = target: T3, SIRT3 (Homo sapiens, UniProt Q9NTG7); assay: HPLC-based SIRT3 inhibition assay with purified SIRT3; type: biochemical; conditions: SIRT3 vs SIRT1
T3 construct: purchased
T3 sequence (Q9NTG7 1-399): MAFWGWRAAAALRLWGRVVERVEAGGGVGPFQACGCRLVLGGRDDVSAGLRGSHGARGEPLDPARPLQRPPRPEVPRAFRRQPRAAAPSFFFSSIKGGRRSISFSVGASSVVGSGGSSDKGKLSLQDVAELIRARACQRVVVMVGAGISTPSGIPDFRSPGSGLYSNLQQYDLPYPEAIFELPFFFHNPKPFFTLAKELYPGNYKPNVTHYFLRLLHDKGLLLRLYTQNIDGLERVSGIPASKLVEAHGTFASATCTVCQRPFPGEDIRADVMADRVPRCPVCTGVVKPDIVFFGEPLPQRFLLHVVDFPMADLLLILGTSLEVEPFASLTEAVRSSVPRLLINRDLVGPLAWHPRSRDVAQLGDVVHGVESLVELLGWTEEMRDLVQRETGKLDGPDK
Protocol: as §1

HDAC8 [1] = target: T4, HDAC8 (Homo sapiens, UniProt Q9BY41); assay: HPLC-based assay with purified HDAC8 (de(thio)acetylation of peptides); type: biochemical; design: key to HDAC8 (sensitive / resistant to HDAC8): +: Sensitive to HDAC8; —: Resistant to HDAC8; conditions: enzymatic dethioacetylation by HDAC8
T4 construct: purchased
T4 sequence (Q9BY41 1-377): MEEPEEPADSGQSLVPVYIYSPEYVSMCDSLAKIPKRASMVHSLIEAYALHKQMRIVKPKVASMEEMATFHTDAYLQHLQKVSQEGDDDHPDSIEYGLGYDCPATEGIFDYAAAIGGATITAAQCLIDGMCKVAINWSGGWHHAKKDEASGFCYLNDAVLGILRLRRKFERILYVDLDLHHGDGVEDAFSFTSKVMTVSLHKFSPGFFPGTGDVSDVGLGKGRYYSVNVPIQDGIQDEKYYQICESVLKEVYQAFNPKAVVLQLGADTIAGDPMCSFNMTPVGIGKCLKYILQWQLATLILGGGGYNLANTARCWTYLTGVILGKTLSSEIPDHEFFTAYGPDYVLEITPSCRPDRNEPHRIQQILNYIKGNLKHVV
Protocol: To test the foregoing premise, peptides 1b, 2, and 3a were allowed to be incubated for 2 hours at room temperature in the HDAC8 assay buffer in a HPLC-based HDAC8 assay. […] FIG. 5 provides representative HPLC chromatograms from HDAC8 assays with peptides 1b, 2, and 3a. All assays were performed in duplicate and essentially the same HPLC chromatograms were obtained for the duplicates. The small peak with tR˜27 minutes in the second chromatogram was from a minor impurity in the purified peptide 2 sample, rather than the dethioacetylated product. The lack of detectable dethioacetylation of peptide 3a was apparent from the absence of a peak with tR˜34 minutes, shown for peptide 3c in the third chromatogram.
Assay with purified HDAC8. The purified HDAC8 could be obtained from a commercial source for use with a HPLC-based HDAC8 assay. In brief, a HDAC8 assay solution had the following components: 25 mM Tris.HCl (pH 8.0), 137 mM NaCl, 2.7 mM KCl, 1 mM MgCl2, 1 mg/mL BSA (SIGMA Cat. #A3803 with reduced fatty acid content), 0.3 mM peptide 1b, 2, or 3a, and 1.5 μM HDAC8. […] An enzymatic reaction was initiated by the addition of HDAC8 at room temperature and was allowed to be incubated at room temperature for 2 hours before being quenched with the following stop solution: 1.0 M HCl and 0.16 M acetic acid. The quenched assay solutions were directly injected into a reversed-phase HPLC C18 column (100 Å, 0.46×25 cm), eluting with the following gradients of ddH2O containing 0.05% (v/v) trifluoroacetic acid (mobile phase A) and acetonitrile containing 0.05% (v/v) trifluoroacetic acid (mobile phase B): linear increase from 0% B to 35% B (for the assay with peptide 2 or 1b) or 40% B (for the assay with peptide 3a or […]) from 0-40 minutes (1 mL/min), and UV monitoring at 214 nm. […] The enzymatically formed peptide 1c was confirmed by its comigration with the chemically synthesized authentic sample and by MALDI-TOF mass spectrometric analysis, and was quantified by HPLC peak integration and comparison with that of synthetic authentic sample.

SIRT1, SIRT2, and SIRT3 = assay: Dethioacetylation of inhibitor peptides under the sirtuin inhibition assay conditions; type: biochemical, human; conditions: same assay conditions as SIRT1/SIRT2/SIRT3 inhibition assays
Protocol: Inhibition assays with purified SIRT1, SIRT2, and SIRT3. GST-SIRT1 that could be produced in a laboratory was used for the SIRT1 inhibition assay. SIRT2 and SIRT3 are obtainable from commercial sources known to those skilled in the art. Consistent HPLC-based assay procedures were used for the inhibition assays with SIRT1, SIRT2, and SIRT3. In brief, an inhibition assay solution had the following components: 25 mM (or 50 mM for SIRT2 assay) Tris.HCl (pH 8.0) 137 mM NaCl, 2.7 mM KCl, 1 mM MgCl2, 1 mg/mL BSA (SIGMA Cat. #A3803 with reduced fatty acid content, for SIRT2 assay only), 0.5 mM β-NAD^+, 0.3 mM peptide substrate (peptide 1b for SIRT1 and SIRT2 assays; peptide 3b for SIRT3 assay), an inhibitor (peptide 1a, 2, or 3a) with varied concentrations including 0, and an enzyme (GST-SIRT1, 0.15 μM; SIRT2, 0.3 μM; or SIRT3, 2.0 μM). […] An enzymatic reaction was initiated by the addition of an enzyme at 37° C. and was allowed to be incubated at 37° C.: 10 minutes as follows: for SIRT1 assay, or 60 minutes for SIRT2 and SIRT3 assays. Incubation was quenched at the indicated time with the following stop solution: 100 mM HCl and 0.16 M acetic acid. The conversion of the limiting substrate to the product was maintained at ≦12%. The quenched assay solutions were directly injected into a reversed-phase HPLC C18 column (100 Å, 0.46×25 cm), eluting with the following gradients of ddH2O containing 0.05% (v/v) trifluoroacetic acid (mobile phase A) and acetonitrile containing 0.05% (v/v) trifluoroacetic acid (mobile phase B): linear increase from 0% B to 35% B (for SIRT1 assay) or 40% B (for SIRT2 and SIRT3 assays) from 0-40 minutes (1 mL/min), and UV monitoring at 214 nm. The enzymatic deacetylation products (peptide 1c in SIRT1 and SIRT2 assays; peptide 3c in SIRT3 assay) were confirmed by their comigration with the chemically synthesized authentic samples and by MALDI-TOF mass spectrometric analysis, and were quantified by HPLC peak integration and comparison with those of synthetic authentic samples. […] All peptide stock solutions were prepared in ddH2O. […]

HDAC8 [2] = target: T4, HDAC8; conditions: inventors' earlier work, Fatkins et al.; cited from earlier work

## CSCC[C@H](NC(=O)[C@H](CC(C)C)NC(=O)[C@H](CCCCNC(C)=S)NC(=O)[C@H](CCCCN)NC(=O)[C@@H](N)Cc1c[nH]cn1)C(=O)O [Peptide 4] (H-HK[Lys(Thioacetyl)]LM-OH)
SIRT1; vs peptide 1a
  decrease in SIRT1 inhibition potency following truncation of peptide 1a: approximately 6 fold

## CC(=O)N[C@@H](CCCCNC(C)=S)C(=O)O [N^α-acetyl-N^ε-thioacetyl-lysine, L-N^α-acetyl-N^ε-thioacetyl-lysine]
SIRT1
  SIRT1 inhibition at 2 mM: No inhibition
SIRT1; listed as L-N^α-acetyl-N^ε-thioacetyl-lysine
  SIRT1 inhibition at 2 mM: did not exhibit any SIRT1 inhibition

## CC(=S)NCCCC[C@H](NC(=O)OCC1c2ccccc2-c2ccccc21)C(=O)O [N^α-Fmoc-N^ε-thioacetyl-lysine, L-N^α-Fmoc-N^ε-thioacetyl-lysine]
SIRT1; concentration to achieve 25% inhibition
  IC25 for SIRT1: 2,000 uM
SIRT1; concentration to achieve 25% inhibition, 0.5 mM β-NAD+, 0.3 mM peptide substrate
  IC25 SIRT1: 2,000 (IC25) μM

## CSCC[C@H](NC(=O)[C@H](CC(C)C)NC(=O)[C@H](CCCCNC(C)=S)NC(=O)[C@H](CCCCN)NC(=O)[C@@H](N)Cc1cnc[nH]1)C(=O)O [Peptide 4] (H-HK[Lys(Thioacetyl)]LM-OH)
SIRT1
  IC50: 10.4 ± 0.3 µM

## CSCC[C@H](NC(=O)[C@H](CC(C)C)NC(=O)[C@H](CCCCNC(C)=S)NC(=O)[C@H](CCCCN)NC(=O)[C@H](Cc1c[nH]cn1)NC(=O)[C@H](CCCNC(=N)N)NC(=O)[C@H](CO)NC(=O)[C@@H](NC(=O)[C@H](CO)NC(=O)[C@H](CCC(N)=O)NC(=O)CNC(=O)[C@H](CCCCN)NC(=O)[C@@H](N)CCCCN)[C@@H](C)O)C(=O)N[C@@H](Cc1ccccc1)C(=O)N[C@@H](CCCCN)C(=O)N[C@H](C(=O)N[C@@H](CCC(=O)O)C(=O)NCC(=O)O)[C@@H](C)O [Peptide 1a]
SIRT2
  inhibition potency against SIRT2 relative to that against SIRT1: comparable inhibition potency
SIRT3
  inhibition potency weaker against SIRT3 than against SIRT1: approximately 35 fold
HDAC8 [1]
  HDAC8 (sensitive / resistant to HDAC8): +^c
SIRT1, SIRT2, and SIRT3
  formation of dethioacetylated peptide under sirtuin inhibition assay conditions: did not give rise to detectable formation
HDAC8 [2]
  de(thio)acetylation by HDAC8 (previously demonstrated): comparably de(thio)acetylated by HDAC8
